From patent US20260262643A1, “HERBICIDAL BENZOXAZINES” (FMC CORPORATION, priority 2022, published 2026)

Key:
[1] = tested on: ryegrass, Italian; assay: Test A preemergence; assay type: in vivo, Lolium multiflorum
Outline: (§1)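 Loam/sand soil; pre-em directed soil spray at planting, post-em spray at 1–2 leaf (2–10 cm). Compound in non-phytotoxic solvent + surfactant. Greenhouse 10 d; visual injury vs untreated, 0 = no effect, 100 = complete control.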

[2] = tested on: kochia; assay: Test A preemergence; assay type: in vivo, Bassia scoparia
Outline: as §1

[3] = tested on: wheat; assay: Test A postemergence; assay type: in vivo, Triticum aestivum
Outline: as §1

[4] = tested on: corn; assay: Test A preemergence; assay type: in vivo, Zea mays
Outline: as §1

[5] = tested on: blackgrass; assay: Test A preemergence; assay type: in vivo, Alopecurus myosuroides
Outline: as §1

[6] = tested on: galium; assay: Test A postemergence; assay type: in vivo, Galium aparine
Outline: as §1

[7] = tested on: ryegrass, Italian; assay: Test A postemergence; assay type: in vivo, Lolium multiflorum
Outline: as §1

[8] = tested on: ragweed; assay: Test A preemergence; assay type: in vivo, Ambrosia artemisiifolia
Outline: as §1

[9] = tested on: goosegrass; assay: Test A preemergence; assay type: in vivo, Eleusine indica
Outline: as §1

[10] = tested on: kochia; assay: Test A postemergence; assay type: in vivo, Bassia scoparia
Outline: as §1

[11] = tested on: ducksalad; assay: Test B flooded paddy test; assay type: in vivo, Heteranthera limosa; details: 250 g ai/ha, Flood, 13 days, 0 to 100 scale (0 no effect, 100 complete control)
Outline: (§2)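 Plants at the 2-leaf stage were flooded to 3 cm above the soil, and test compounds were applied directly into the paddy water, with that depth held throughout. After 13 days in a greenhouse, injury was rated visually against untreated controls on a 0–100 scale (100 = complete control).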

[12] = tested on: soybean; assay: Test A preemergence; assay type: in vivo, Glycine max
Outline: as §1

[13] = tested on: foxtail, giant; assay: Test A preemergence; assay type: in vivo, Setaria faberi
Outline: as §1

[14] = tested on: goosegrass; assay: Test A postemergence; assay type: in vivo, Eleusine indica
Outline: as §1

[15] = tested on: corn; assay: Test A postemergence; assay type: in vivo, Zea mays
Outline: as §1

[16] = tested on: wheat; assay: Test A preemergence; assay type: in vivo, Triticum aestivum
Outline: as §1

[17] = tested on: soybean; assay: Test A postemergence; assay type: in vivo, Glycine max
Outline: as §1

[18] = tested on: ragweed; assay: Test A postemergence; assay type: in vivo, Ambrosia artemisiifolia
Outline: as §1

[19] = tested on: blackgrass; assay: Test A postemergence; assay type: in vivo, Alopecurus myosuroides
Outline: as §1

[20] = tested on: sedge, umbrella; assay: Test B flooded paddy test; assay type: in vivo, Cyperus difformis; details: 250 g ai/ha, Flood, 13 days, 0 to 100 scale (0 no effect, 100 complete control)
Outline: as §2

[21] = tested on: barnyardgrass; assay: Test B flooded paddy test; assay type: in vivo, Echinochloa crus-galli; details: 250 g ai/ha, Flood, 13 days, 0 to 100 scale (0 no effect, 100 complete control)
Outline: as §2

[22] = tested on: foxtail, giant; assay: Test A postemergence; assay type: in vivo, Setaria faberi
Outline: as §1

[23] = tested on: pigweed, palmer; assay: Test A preemergence; assay type: in vivo, Amaranthus palmeri
Outline: as §1

[24] = tested on: rice; assay: Test B flooded paddy test; assay type: in vivo, Oryza sativa; details: 250 g ai/ha, Flood, 13 days, 0 to 100 scale (0 no effect, 100 complete control)
Outline: as §2

[25] = tested on: pigweed, palmer; assay: Test A postemergence; assay type: in vivo, Amaranthus palmeri
Outline: as §1

[26] = tested on: oat, wild; assay: Test A preemergence; assay type: in vivo, Avena fatua
Outline: as §1

[27] = tested on: oat, wild; assay: Test A postemergence; assay type: in vivo, Avena fatua
Outline: as §1

[28] = tested on: horseweed; assay: Test A postemergence; assay type: in vivo, Erigeron canadensis
Outline: as §1

[29] = 125 g ai/ha, visual injury after 10 days, 0 to 100 scale, 0 is no effect, 100 is complete control
[30] = 500 g ai/ha, 0 to 100 scale (0 no effect, 100 complete control), 10 days
[31] = 125 g ai/ha, postemergence, 10 days, 0 to 100 scale, 0 no effect, 100 complete control
[32] = 500 g ai/ha, postemergence, 10 days, visual injury, 0 to 100 scale (0 no effect, 100 complete control)
[33] = 125 g ai/ha, postemergence, 10 days, visual injury, 0 to 100 scale (0 no effect, 100 complete control)
[34] = 500 g ai/ha, Postemergence, 0 to 100 scale

CCOc1ccc(-n2cnc(C(C)C)n2)cc1C(=O)N1C[C@H](C)Oc2c(Cl)cccc21 [Compound 106]
Plant response rating, Ryegrass, Italian [1, 29]: 40 | Plant response rating, Ryegrass, Italian [1, 30]: 100 | Plant response rating, Kochia [2, 29]: 50 | Plant response rating, Kochia [2, 30]: 100 | Wheat plant response rating [3, 31]: 20 | Plant response rating, Wheat [3, 32]: 40 | Plant response rating, Corn [4, 29]: 10 | Plant response rating, Corn [4, 30]: 50 | Plant response rating, Blackgrass [5, 29]: 0 | Plant response rating, Blackgrass [5, 30]: 0 | Galium plant response rating [6, 31]: 70 | Plant response rating, Galium [6, 32]: 100 | Ryegrass, Italian plant response rating [7, 31]: 20 | Plant response rating, Ryegrass, Italian [7, 32]: 80 | Plant response rating, Ragweed [8, 29]: 30 | Plant response rating, Ragweed [8, 30]: 100 | Plant response rating, Goosegrass [9, 29]: 100 | Plant response rating, Goosegrass [9, 30]: 100 | Kochia plant response rating [10, 31]: 90 | Plant response rating, Kochia [10, 32]: 90 | Plant response rating, Ducksalad [11]: 10 | Plant response rating, Soybean [12, 29]: 50 | Plant response rating, Soybean [12, 30]: 100 | Plant response rating, Foxtail, Giant [13, 29]: 100 | Plant response rating, Foxtail, Giant [13, 30]: 100 | Goosegrass plant response rating [14, 31]: 70 | Plant response rating, Goosegrass [14, 32]: 90 | Corn plant response rating [15, 31]: 60 | Plant response rating, Corn [15, 32]: 90 | Plant response rating, Wheat [16, 29]: 0 | Plant response rating, Wheat [16, 30]: 40 | Soybean plant response rating [17, 31]: 100 | Plant response rating, Soybean [17, 32]: 100 | Ragweed plant response rating [18, 31]: 50 | Plant response rating, Ragweed [18, 32]: 70 | Blackgrass plant response rating [19, 31]: 60 | Plant response rating, Blackgrass [19, 32]: 80 | Plant response rating, Sedge, Umbrella [20]: 90 | Plant response rating, Barnyardgrass [21]: 55 | Foxtail, Giant plant response rating [22, 31]: 90 | Plant response rating, Foxtail, Giant [22, 32]: 100 | Plant response rating, Pigweed, Palmer [23, 29]: 100 | Plant response rating, Pigweed, Palmer [23, 30]: 100 | Plant response rating, Rice [24]: 15 | Pigweed, Palmer plant response rating [25, 31]: 70 | Plant response rating, Pigweed, Palmer [25, 32]: 90 | Plant response rating, Oat, Wild [26, 29]: 20 | Plant response rating, Oat, Wild [26, 30]: 90 | Oat, Wild plant response rating [27, 31]: 30 | Plant response rating, Oat, Wild [27, 32]: 60 | Horseweed plant response rating [28, 31]: 10 | Plant response rating, Horseweed [28, 32]: 80

Cc1cccc2c1O[C@@H](C)CN2C(=O)c1cc(-n2cncn2)ccc1F [Compound 50]
Plant response rating, Ryegrass, Italian [1, 29]: 80 | Plant response rating, Ryegrass, Italian [1, 30]: 90 | Plant response rating, Kochia [2, 29]: 0 | Plant response rating, Kochia [2, 30]: 10 | Plant response rating, Wheat [3, 33]: 40 | Plant response rating, Wheat [3, 34]: 70 | Plant response rating, Corn [4, 29]: 0 | Plant response rating, Corn [4, 30]: 0 | Plant response rating, Blackgrass [5, 29]: 40 | Plant response rating, Blackgrass [5, 30]: 80 | Plant response rating, Galium [6, 33]: 60 | Plant response rating, Galium [6, 34]: 100 | Plant response rating, Ryegrass, Italian [7, 33]: 50 | Plant response rating, Ryegrass, Italian [7, 34]: 80 | Plant response rating, Ragweed [8, 29]: 0 | Plant response rating, Ragweed [8, 30]: 30 | Plant response rating, Goosegrass [9, 29]: 90 | Plant response rating, Goosegrass [9, 30]: 100 | Plant response rating, Kochia [10, 33]: 10 | Plant response rating, Kochia [10, 34]: 70 | Plant response rating, Ducksalad [11]: 0 | Plant response rating, Soybean [12, 29]: 30 | Plant response rating, Soybean [12, 30]: 90 | Plant response rating, Foxtail, Giant [13, 29]: 90 | Plant response rating, Foxtail, Giant [13, 30]: 100 | Plant response rating, Goosegrass [14, 33]: 50 | Plant response rating, Goosegrass [14, 34]: 90 | Plant response rating, Corn [15, 33]: 30 | Plant response rating, Corn [15, 34]: 60 | Plant response rating, Wheat [16, 29]: 0 | Plant response rating, Wheat [16, 30]: 50 | Plant response rating, Soybean [17, 33]: 100 | Plant response rating, Soybean [17, 34]: 100 | Plant response rating, Ragweed [18, 33]: 20 | Plant response rating, Ragweed [18, 34]: 40 | Plant response rating, Blackgrass [19, 33]: 50 | Plant response rating, Blackgrass [19, 34]: 70 | Plant response rating, Sedge, Umbrella [20]: 0 | Plant response rating, Barnyardgrass [21]: 0 | Plant response rating, Foxtail, Giant [22, 33]: 70 | Plant response rating, Foxtail, Giant [22, 34]: 90 | Plant response rating, Pigweed, Palmer [23, 29]: 0 | Plant response rating, Pigweed, Palmer [23, 30]: 100 | Plant response rating, Rice [24]: 0 | Plant response rating, Pigweed, Palmer [25, 33]: 30 | Plant response rating, Pigweed, Palmer [25, 34]: 30 | Plant response rating, Oat, Wild [26, 29]: 20 | Plant response rating, Oat, Wild [26, 30]: 90 | Plant response rating, Oat, Wild [27, 33]: 20 | Plant response rating, Oat, Wild [27, 34]: 50 | Plant response rating, Horseweed [28, 33]: 0 | Plant response rating, Horseweed [28, 34]: 10
